According to BigSolDB 2.1:

## OCCCCCCO
In DMAc, 283.15 K
  solubility (mole fraction): 0.0205
In DMAc, 288.15 K
  solubility (mole fraction): 0.0298
In DMAc, 293.15 K
  solubility (mole fraction): 0.0469
In DMAc, 298.15 K
  solubility (mole fraction): 0.0688
In DMAc, 303.15 K
  solubility (mole fraction): 0.0939
In methanol, 283.15 K
  solubility (mole fraction): 0.365
In methanol, 288.15 K
  solubility (mole fraction): 0.428
In methanol, 293.15 K
  solubility (mole fraction): 0.51
In methanol, 298.15 K
  solubility (mole fraction): 0.585
In methanol, 303.15 K
  solubility (mole fraction): 0.698
In n-butanol, 283.15 K
  solubility (mole fraction): 0.316
In n-butanol, 288.15 K
  solubility (mole fraction): 0.389
In n-butanol, 293.15 K
  solubility (mole fraction): 0.479
In n-butanol, 298.15 K
  solubility (mole fraction): 0.577
In n-butanol, 303.15 K
  solubility (mole fraction): 0.689
